Consider 15 molecules from patent publication US20190388421A1, “NOVEL COMPOUNDS AND PHARMACEUTICAL COMPOSITIONS THEREOF FOR THE TREATMENT OF FIBROSIS” (Galapagos NV, priority 2016, published 2019).

Where only a bound is given, the exact number is not on record here.

In assay [1] the target is T1, human GPCR sphingosine 1-phosphate receptor 2 (S1PR2) (Homo sapiens, UniProt O95136).
T1 construct: host or cells: CHO
In words: S1P2 antagonist assay (Ca2+ flux, S1P at EC80). As to conditions: CHO-S1PR2 cells, highest concentration 20 μM. Type of assay: cell-based. The method, boiled down:
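CHO cells stably overexpressing human S1PR2, serum-starved 1 h and loaded with Fluo8 dye, were read for 3 min after compound addition, then stimulated with S1P at EC80 after 15 min at 37 °C. Top concentration 20 μM in a 10-point 1/3 series; Ca2+ fluorescence ratio normalized to vehicle and S1P EC80, giving EC50.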
(Calcium assays in cells follow changes in intracellular calcium, usually with a dye or a luminescent sensor.)

Assay [2] has as its system HFL-1 cells. The assay is described as follows: IL8 assay in the presence of Human Serum Albumin. As to conditions: HFL1, S1P (5 μM) induced IL-8, HFL-1 cells, with 2% HSA, read-out: HSA IL8 EC50. Type of assay: cell-based. A digest of the protocol: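 Cells serum-starved with 1.95% HSA, pre-treated 1 h with compound (10-point 1/3 dilution from 30 μM, 0.3% DMSO), then stimulated with 5 μM S1P for 16 to 24 h at 37° C. Supernatant IL-8 measured by ELISA.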

Assay [3] deals with T2, human GPCR sphingosine 1-phosphate receptor 1 (S1PR1) (Homo sapiens, UniProt P21453).
T2 construct: host or cells: CHO
T2 sequence (P21453 whole entry): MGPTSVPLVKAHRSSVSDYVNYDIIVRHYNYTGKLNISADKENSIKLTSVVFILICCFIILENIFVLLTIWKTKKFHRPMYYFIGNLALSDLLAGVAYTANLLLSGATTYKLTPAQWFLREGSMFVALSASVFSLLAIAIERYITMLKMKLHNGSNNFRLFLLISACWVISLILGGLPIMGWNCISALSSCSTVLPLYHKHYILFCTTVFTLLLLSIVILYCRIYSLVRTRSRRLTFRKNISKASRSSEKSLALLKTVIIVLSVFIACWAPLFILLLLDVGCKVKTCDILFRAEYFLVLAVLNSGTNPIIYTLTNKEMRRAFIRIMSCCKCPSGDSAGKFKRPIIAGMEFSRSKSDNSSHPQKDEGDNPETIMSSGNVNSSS
In words: S1PR1 selectivity assay (Ca2+ flux, antagonist). The format is cell-based. The note with it: S1P1 antagonist EC50, CHO cells overexpressing human S1PR1 and Gq protein. The method, boiled down:
(§1)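 CHO cells stably overexpressing human S1PR1 or S1PR5 with Gq were preincubated with compound 15 min at 37 °C, then stimulated with S1P at EC80 (S1PR1) or an S1PR5-specific agonist (S1PR5). Ca2+ fluorescence was read for 3 min; 10-point 1/3 dilutions from 20 μM final, normalized to vehicle and EC80 trigger, gave EC50.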

The next assay has as its target T3, S1PR2 (Homo sapiens, UniProt O95136).
T3 construct: expressed in transfected cells
The assay is described as follows: GTP-γS binding assay ([35S]GTPγS, S1P at EC80, S1PR2 membranes). The note with it: membranes from stable cell line over expressing S1PR2, read-out: S1PR2 EC. Type of assay: biochemical. The method, boiled down: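 Compounds tested against S1P at its EC80 on membranes (2.5 μg/well) from a stable S1PR2-overexpressing line, pre-incubated with 1 μM GDP 15 min at 4 °C. Buffer: 20 mM Tris pH 7.5, 10 mM MgCl2, 100 mM NaCl, 0.1% fatty-acid-free BSA, 50 ug/ml saponin. Incubated 4 h at room temperature; [35S]GTPγS binding read by WGA SPA beads.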
In general terms: GTPγS is a poorly hydrolysed GTP analogue; its binding reports G protein activation.

In assay [4] the test system is HFL-1 cells. The assay is described as follows: IL8 assay (S1P induced IL-8 production). Type of assay: cell-based. The note with it: Homo sapiens, HFL1; S1P (1 μM) induced IL-8, HFL-1 cells, without HSA. A digest of the protocol: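 Serum-starved human fetal lung fibroblasts were preincubated with compound for 1 h at 37° C (10-point, 1/3 dilution, top 30 μM, 0.3% DMSO). S1P at 1 μM final was then added for 16–24 h, and IL-8 in the supernatant was measured by ELISA.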

Assay [5] concerns the target T4, human GPCR sphingosine 1-phosphate receptor 5 (S1PR5) (Homo sapiens, UniProt Q9H228).
T4 construct: host or cells: CHO
The assay is described as follows: S1PR5 selectivity assay (Ca2+ flux, antagonist, S1PR5 specific agonist trigger). As to conditions: S1P5 antagonist EC50, CHO cells overexpressing human S1PR5 and Gq protein. Type of assay: cell-based. The method, boiled down: as §1

T1 sequence (O95136 whole entry): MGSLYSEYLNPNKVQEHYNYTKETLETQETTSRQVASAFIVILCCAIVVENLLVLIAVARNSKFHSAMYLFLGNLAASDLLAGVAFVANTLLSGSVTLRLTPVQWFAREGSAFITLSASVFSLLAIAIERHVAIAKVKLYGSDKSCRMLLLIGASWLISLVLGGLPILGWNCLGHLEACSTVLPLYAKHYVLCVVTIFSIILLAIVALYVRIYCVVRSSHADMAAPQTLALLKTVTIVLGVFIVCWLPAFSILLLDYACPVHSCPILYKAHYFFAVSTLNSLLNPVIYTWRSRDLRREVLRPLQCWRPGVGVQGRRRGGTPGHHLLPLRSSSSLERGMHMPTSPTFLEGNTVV
T3 sequence (O95136 whole entry): as above
T4 sequence (Q9H228 whole entry): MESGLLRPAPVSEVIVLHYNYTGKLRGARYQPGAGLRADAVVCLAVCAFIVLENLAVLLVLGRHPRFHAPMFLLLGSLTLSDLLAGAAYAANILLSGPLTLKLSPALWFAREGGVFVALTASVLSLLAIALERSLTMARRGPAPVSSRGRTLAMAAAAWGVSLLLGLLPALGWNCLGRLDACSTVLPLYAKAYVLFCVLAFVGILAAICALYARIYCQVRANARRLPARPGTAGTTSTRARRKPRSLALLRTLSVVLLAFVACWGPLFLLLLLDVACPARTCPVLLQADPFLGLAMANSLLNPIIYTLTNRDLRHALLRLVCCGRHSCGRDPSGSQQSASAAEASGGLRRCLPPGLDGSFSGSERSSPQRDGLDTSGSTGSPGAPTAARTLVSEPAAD

Take `Cc1cc(CNC(=O)Nc2cc(OCC(O)CO)nc(C(F)(F)F)c2)nnc1-c1cn(C)nc1C(F)(F)F` (stereo not drawn) [Compound 5, 1-[2-(2,3-dihydroxypropoxy)-6-(trifluoromethyl)-4-pyridyl]-3-[[5-methyl-6-[1-methyl-3-(trifluoromethyl)pyrazol-4-yl]pyridazin-3-yl]methyl]urea]: the EC50 in assay [1] is 6610 nM; in assay [3] it was not below 19800 nM; on S1PR2, 11100 nM; in the assay with HFL-1 cells [4], 1540 nM; in assay [5], not below 19800 nM. Moreover, the IC50 in the assay on HFL-1 cells [2] is 9950 nM.

As to `CCOc1cc(NC(=O)NCc2cc(C)c(-c3cn(C)nc3C(F)(F)F)nn2)cc(Cl)n1` [Compound 2, 1-(2-Chloro-6-ethoxy-pyridin-4-yl)-3-[5-methyl-6-(1-methyl-3-trifluoromethyl-1H-pyrazol-4-yl)-pyridazin-3-ylmethyl]-urea], the EC50 in assay [1] is 8.5 nM; in assay [3], 4540 nM; at S1PR2, 22.4 nM; in the assay on HFL-1 cells [4], 1.5 nM; in assay [5], 4600 nM. The IC50 in the assay with HFL-1 cells [2] turned out to be 25.1 nM.

For the molecule `CCOc1cc(NC(=O)NCc2cc(C)c(-c3cn(C)nc3C(F)(F)F)nn2)cc(C)n1` [Compound 35, 1-(2-ethoxy-6-methyl-4-pyridyl)-3-[[5-methyl-6-[1-methyl-3-(trifluoromethyl)pyrazol-4-yl]pyridazin-3-yl]methyl]urea], the EC50 in assay [1] was 74.5 nM; in assay [3], not below 19800 nM; at S1PR2, 242 nM; with HFL-1 cells [4], 61.9 nM; in assay [5], not below 19800 nM. Further, the IC50 with HFL-1 cells [2] amounted to 185 nM.

As for `CCOc1nc(C)cc(NC(=O)NCc2cc(C)c(-c3cn(C)nc3C(F)(F)F)nn2)c1C` [Compound 72, 1-(2-ethoxy-3,6-dimethyl-4-pyridyl)-3-[[5-methyl-6-[1-methyl-3-(trifluoromethyl)pyrazol-4-yl]pyridazin-3-yl]methyl]urea], the EC50 in assay [1] was 9 nM; in assay [3], 16500 nM; on S1PR2 it was 25 nM; in the assay with HFL-1 cells [4] it was 2 nM; in assay [5], 11000 nM. The IC50 with HFL-1 cells [2] came to 47 nM.

As for `CCOc1cc(NC(=O)NCc2cc(C)c(-c3cn(C)nc3C(F)(F)F)nn2)cc(C(F)(F)F)n1` [Compound 1, 1-(2-Ethoxy-6-trifluoromethyl-pyridin-4-yl)-3-[5-methyl-6-(1-methyl-3-trifluoromethyl-1H-pyrazol-4-yl)-pyridazin-3-ylmethyl]-urea], the EC50 was 9.5 nM in assay [1]; 5970 nM in assay [3]; 33.2 nM at S1PR2; 2.2 nM in the assay with HFL-1 cells [4]; 6610 nM in assay [5]. Also, the IC50 in the assay with HFL-1 cells [2] was 61.5 nM.

`CCOc1nc(C(F)(F)F)cc(NC(=O)NC(C)c2cc(C)c(-c3cn(C)nc3C(F)(F)F)nn2)c1C` (stereo not drawn) [Compound 45, 1-[2-ethoxy-3-methyl-6-(trifluoromethyl)-4-pyridyl]-3-[1-[5-methyl-6-[1-methyl-3-(trifluoromethyl)pyrazol-4-yl]pyridazin-3-yl]ethyl]urea]: the EC50 in assay [1] is 19.7 nM; in assay [3], not below 19800 nM; at S1PR2, 211 nM; in the assay with HFL-1 cells [4] it was 41.1 nM; in assay [5], 6610 nM. For the same molecule, in the assay on HFL-1 cells [2], the IC50 was 84.2 nM.

On to `CCOc1cc(NC(=O)NCc2cc(C)c(-c3cn(C4CCOC4)nc3C(F)(F)F)nn2)cc(C(F)(F)F)n1` (stereo not drawn) [Compound 52, 1-[2-ethoxy-6-(trifluoromethyl)-4-pyridyl)-3-[[5-methyl-6-[1-tetrahydrofuran-3-yl-3-(trifluoromethyl)pyrazol-4-yl]pyridazin-3-yl]methyl]urea], for which the EC50 was 11.4 nM in assay [1]; 5890 nM in assay [3]; 70.2 nM at S1PR2; 7.8 nM with HFL-1 cells [4]; 6620 nM in assay [5]. Further, the IC50 with HFL-1 cells [2] stood at 79.3 nM.

`CCOc1cc(NC(=O)NCc2cc(C)c(N3CC(C)OC(C)C3)nn2)cc(Cl)n1` (stereo not drawn) [Compound 82, 1-(2-Chloro-6-ethoxy-pyridin-4-yl)-3-[6-(2,6-dimethyl-morpholin-4-yl)-5-methyl-pyridazin-3-ylmethyl]-urea]: the EC50 worked out at 6 nM in assay [1]; 6610 nM in assay [3]; 156 nM on S1PR2; 53.5 nM in the assay with HFL-1 cells [4]; 341 nM in assay [5]. Also, in the assay on HFL-1 cells [2], the IC50 came to 730 nM.

As to `COc1cc(CNC(=O)Nc2cc(Cl)nc(OCC(F)F)c2)nnc1-c1cn(C)nc1C(F)(F)F` [Compound 64, 1-[2-chloro-6-(2,2-difluoroethoxy)-4-pyridyl]-3-[[5-methoxy-6-[1-methyl-3-(trifluoromethyl)pyrazol-4-yl]pyridazin-3-yl]methyl]urea], the EC50 in assay [1] turned out to be 8.5 nM; in assay [3] it was 1620 nM; at S1PR2, 48.7 nM; in the assay on HFL-1 cells [4] it was 16.6 nM; in assay [5], 4380 nM. Besides, the IC50 with HFL-1 cells [2] stood at 119 nM.

Take `CCOc1cc(NC(=O)NCc2cc(C)c(-c3cn(CCOC)nc3C(F)(F)F)nn2)cc(C(F)(F)F)n1` [Compound 53, 1-[2-ethoxy-6-(trifluoromethyl)-4-pyridyl]-3-[[6-[1-(2-methoxyethyl)-3-(trifluoromethyl)pyrazol-4-yl]-5-methyl-pyridazin-3-yl]methyl]urea]: the EC50 turned out to be 10 nM in assay [1]; 4020 nM in assay [3]; 52.4 nM on S1PR2; 6.6 nM with HFL-1 cells [4]; 6610 nM in assay [5]. Further, the IC50 with HFL-1 cells [2] was found to be 51.2 nM.

Consider `Cc1cc(NC(=O)NCc2cc(C)c(-c3cn(C)nc3C(F)(F)F)nn2)c(C)c(OCC(F)F)n1` [Compound 74, 1-[2-(2,2-difluoroethoxy)-3,6-dimethyl-4-pyridyl]-3-[[5-methyl-6-[1-methyl-3-(trifluoromethyl)pyrazol-4-yl]pyridazin-3-yl]methyl]urea], for which the EC50 in assay [1] was 22 nM; in assay [3], 13000 nM; at S1PR2, 81 nM; in the assay on HFL-1 cells [4], 15 nM; in assay [5], not below 19800 nM. Moreover, the IC50 in the assay with HFL-1 cells [2] stood at 118 nM.

Consider `Cc1cc(CNC(=O)Nc2cc(N3CC(F)(F)C3)nc(C(F)(F)F)c2)nnc1-c1cn(C)nc1C(F)(F)F` [Compound 47], for which the EC50 was 9.3 nM in assay [1]; 6610 nM in assay [3]; 34.5 nM at S1PR2; 4.6 nM in the assay with HFL-1 cells [4]; not below 19800 nM in assay [5]. In the assay on HFL-1 cells [2], the IC50 was 42.4 nM.

For the molecule `Cc1cc(NC(=O)NCc2cc(C)c(-c3cn(C)nc3C(F)(F)F)nn2)cc(OCC(F)F)n1` [Compound 75, 1-[2-(2,2-difluoroethoxy)-6-methyl-4-pyridyl]-3-[[5-methyl-6-[1-methyl-3-(trifluoromethyl)pyrazol-4-yl]pyridazin-3-yl]methyl]urea], the EC50 in assay [1] was 59 nM; in assay [3] it was not below 19800 nM; on S1PR2, 282 nM; in the assay with HFL-1 cells [4], 38 nM; in assay [5], 2890 nM. Also, in the assay on HFL-1 cells [2], the IC50 came out at 223 nM.

For `Cc1cc(CNC(=O)Nc2cc(Cl)nc(OCC(F)F)c2)nnc1N1CCC(F)(CO)C1` (stereo not drawn) [Compound 90, 1-[2-chloro-6-(2,2-difluoroethoxy)-4-pyridyl]-3-[[6-[3-fluoro-3-(hydroxymethyl)pyrrolidin-1-yl]-5-methyl-pyridazin-3-yl]methyl]urea], the EC50 in assay [1] was found to be 452 nM; in assay [3], 6610 nM; at S1PR2 it was 1170 nM; with HFL-1 cells [4] it was 244 nM; in assay [5], 2090 nM. The IC50 in the assay on HFL-1 cells [2] came to 30000 nM.

Consider `CCOc1cc(NC(=O)NCc2cc(C)c(N3CCCc4nn(C)cc43)nn2)cc(C(F)(F)F)n1` [Compound 96, 1-[2-ethoxy-6-(trifluoromethyl)-4-pyridyl]-3-[[5-methyl-6-(2-methyl-6,7-dihydro-5H-pyrazolo[4,3-b]pyridin-4-yl)pyridazin-3-yl]methyl]urea], for which the EC50 in assay [1] worked out at 33 nM; in assay [3], 6610 nM; on S1PR2 it was 302 nM; in the assay with HFL-1 cells [4], 44 nM; in assay [5], 627 nM. For the same molecule, in the assay with HFL-1 cells [2], the IC50 came to 2270 nM.
